In brackets after ≈: the same amount, converted by molar mass.
What was measured:
[1] = Binding affinity to 8-Amino-octanoyl-D-Ala-D-Ala peptide by surface plasmon resonance
Staphylococcus aureus [2] = experiment: Antibacterial activity against vancomycin-susceptible Staphylococcus aureus RN4220; type: functional
Staphylococcus aureus [3] = experiment: Antibacterial activity against methicillin-resistant vancomycin-susceptible Staphylococcus aureus SR-3637; type: functional; settings: SR3637
Enterococcus faecium [4] = experiment: Antibacterial activity against vancomycin B-resistant Enterococcus faecium SR-23598; type: functional; settings: SR23598
Enterococcus faecium [5] = experiment: Antibacterial activity against vancomycin A-resistant Enterococcus faecium SR-7940; type: functional; settings: SR7940
Enterococcus faecium [6] = experiment: Antibacterial activity against vancomycin-susceptible Enterococcus faecium SR-16972; type: functional; settings: SR16972
Enterococcus faecalis [7] = experiment: Antibacterial activity against vancomycin A-resistant Enterococcus faecalis SR-7914; type: functional; settings: SR7914
Enterococcus faecalis [8] = experiment: Antibacterial activity against vancomycin-susceptible Enterococcus faecalis SR1004; type: functional
Enterococcus faecalis [9] = experiment: Antibacterial activity against vancomycin B-resistant Enterococcus faecalis SR-23630; type: functional; settings: SR23630
Staphylococcus aureus [10] = experiment: Antibacterial activity against vancomycin A-resistant Staphylococcus aureus VRS2; type: functional

Row | Structure (SMILES) | Kd [1] [µM] | MIC (Staphylococcus aureus [2]) [µg/mL] | MIC (Staphylococcus aureus [3]) [µg/mL] | MIC (Enterococcus faecium [4]) [µg/mL] | MIC (Enterococcus faecium [5]) [µg/mL] | MIC (Enterococcus faecium [6]) [µg/mL] | MIC (Enterococcus faecalis [7]) [µg/mL] | MIC (Enterococcus faecalis [8]) [µg/mL] | MIC (Enterococcus faecalis [9]) [µg/mL] | MIC (Staphylococcus aureus [10]) [µg/mL]
1 | CCCCCC/C=C/c1cc2ccc1Oc1cc3cc(c1O[C@@H]1O[C@H](CO)[C@@H](O)[C@H](O)[C@H]1O[C@H]1C[C@](C)(N)[C@H](O)[C@H](C)O1)Oc1ccc(cc1/C=C/CCCCCC)[C@@H](O)[C@@H](NC(=O)[C@@H](CC(C)C)NC)C(=O)N[C@@H](CC(N)=O)C(=O)N[C@H]3C(=O)N[C@H]1C(=O)N[C@H](C(=O)N[C@H](C(=O)O)c3cc(O)cc(O)c3-c3cc1ccc3O)[C@@H]2O | 11.6 | 32 (≈ 20 µM) | 64 (≈ 40 µM) | > 64 | > 64 | 32 (≈ 20 µM) | > 64 | 32 (≈ 20 µM) | > 64 | > 64
2 | CN[C@H](CC(C)C)C(=O)N[C@H]1C(=O)N[C@@H](CC(N)=O)C(=O)N[C@H]2C(=O)N[C@H]3C(=O)N[C@H](C(=O)N[C@H](C(=O)O)c4cc(O)cc(O)c4-c4cc3ccc4O)[C@H](O)c3ccc(c(/C=C/CCCc4ccccc4)c3)Oc3cc2cc(c3O[C@@H]2O[C@H](CO)[C@@H](O)[C@H](O)[C@H]2O[C@H]2C[C@](C)(N)[C@H](O)[C@H](C)O2)Oc2ccc(cc2/C=C/CCCc2ccccc2)[C@H]1O |  | 32 (≈ 19.2 µM) | 64 (≈ 38.4 µM) | > 64 | > 64 | 32 (≈ 19.2 µM) | > 64 | 32 (≈ 19.2 µM) | > 64 | > 64
3 | CN[C@H](CC(C)C)C(=O)N[C@H]1C(=O)N[C@@H](CC(N)=O)C(=O)N[C@H]2C(=O)N[C@H]3C(=O)N[C@H](C(=O)N[C@H](C(=O)O)c4cc(O)cc(O)c4-c4cc3ccc4O)[C@H](O)c3ccc(c(-c4ccccc4OC)c3)Oc3cc2cc(c3O[C@@H]2O[C@H](CO)[C@@H](O)[C@H](O)[C@H]2O[C@H]2C[C@](C)(N)[C@H](O)[C@H](C)O2)Oc2ccc(cc2Cl)[C@H]1O |  | 4 (≈ 2.63 µM) | 8 (≈ 5.26 µM) | > 64 | > 64 | 4 (≈ 2.63 µM) | > 64 | 8 (≈ 5.26 µM) | > 64 | 64 (≈ 42.1 µM)
4 | CN[C@H](CC(C)C)C(=O)N[C@H]1C(=O)N[C@@H](CC(N)=O)C(=O)N[C@H]2C(=O)N[C@H]3C(=O)N[C@H](C(=O)N[C@H](C(=O)O)c4cc(O)cc(O)c4-c4cc3ccc4O)[C@H](O)c3ccc(c(/C=C/c4ccccc4)c3)Oc3cc2cc(c3O[C@@H]2O[C@H](CO)[C@@H](O)[C@H](O)[C@H]2O[C@H]2C[C@](C)(N)[C@H](O)[C@H](C)O2)Oc2ccc(cc2Cl)[C@H]1O |  | 1 (≈ 0.659 µM) | 2 (≈ 1.32 µM) | > 64 | > 64 | 1 (≈ 0.659 µM) | > 64 | 1 (≈ 0.659 µM) | 64 (≈ 42.2 µM) | 16 (≈ 10.5 µM)
5 | CN[C@H](CC(C)C)C(=O)N[C@H]1C(=O)N[C@@H](CC(N)=O)C(=O)N[C@H]2C(=O)N[C@H]3C(=O)N[C@H](C(=O)N[C@H](C(=O)O)c4cc(O)cc(O)c4-c4cc3ccc4O)[C@H](O)c3ccc(c(/C=C/c4ccc(OC)cc4)c3)Oc3cc2cc(c3O[C@@H]2O[C@H](CO)[C@@H](O)[C@H](O)[C@H]2O[C@H]2C[C@](C)(N)[C@H](O)[C@H](C)O2)Oc2ccc(cc2Cl)[C@H]1O |  | 1 (≈ 0.646 µM) | 2 (≈ 1.29 µM) | > 64 | > 64 | 1 (≈ 0.646 µM) | > 64 | 1 (≈ 0.646 µM) | 32 (≈ 20.7 µM) | 16 (≈ 10.3 µM)
6 | CN[C@H](CC(C)C)C(=O)N[C@H]1C(=O)N[C@@H](CC(N)=O)C(=O)N[C@H]2C(=O)N[C@H]3C(=O)N[C@H](C(=O)N[C@H](C(=O)O)c4cc(O)cc(O)c4-c4cc3ccc4O)[C@H](O)c3ccc(c(/C=C/c4ccc(C(F)(F)F)cc4)c3)Oc3cc2cc(c3O[C@@H]2O[C@H](CO)[C@@H](O)[C@H](O)[C@H]2O[C@H]2C[C@](C)(N)[C@H](O)[C@H](C)O2)Oc2ccc(cc2Cl)[C@H]1O |  | 1 (≈ 0.631 µM) | 2 (≈ 1.26 µM) | 32 (≈ 20.2 µM) | > 64 | 1 (≈ 0.631 µM) | 64 (≈ 40.4 µM) | 1 (≈ 0.631 µM) | 2 (≈ 1.26 µM) | 64 (≈ 40.4 µM)
7 | CN[C@H](CC(C)C)C(=O)N[C@H]1C(=O)N[C@@H](CC(N)=O)C(=O)N[C@H]2C(=O)N[C@H]3C(=O)N[C@H](C(=O)N[C@H](C(=O)O)c4cc(O)cc(O)c4-c4cc3ccc4O)[C@H](O)c3ccc(c(-c4ccccc4)c3)Oc3cc2cc(c3O[C@@H]2O[C@H](CO)[C@@H](O)[C@H](O)[C@H]2O[C@H]2C[C@](C)(N)[C@H](O)[C@H](C)O2)Oc2ccc(cc2Cl)[C@H]1O |  | 4 (≈ 2.68 µM) | 4 (≈ 2.68 µM) | > 64 | > 64 | 2 (≈ 1.34 µM) | > 64 | 4 (≈ 2.68 µM) | 64 (≈ 42.9 µM) | 64 (≈ 42.9 µM)
8 | CN[C@H](CC(C)C)C(=O)N[C@H]1C(=O)N[C@@H](CC(N)=O)C(=O)N[C@H]2C(=O)N[C@H]3C(=O)N[C@H](C(=O)N[C@H](C(=O)O)c4cc(O)cc(O)c4-c4cc3ccc4O)[C@H](O)c3ccc(c(-c4ccc(OC)cc4)c3)Oc3cc2cc(c3O[C@@H]2O[C@H](CO)[C@@H](O)[C@H](O)[C@H]2O[C@H]2C[C@](C)(N)[C@H](O)[C@H](C)O2)Oc2ccc(cc2Cl)[C@H]1O |  | 4 (≈ 2.63 µM) | 4 (≈ 2.63 µM) | > 64 | > 64 | 2 (≈ 1.31 µM) | > 64 | 4 (≈ 2.63 µM) | > 64 | > 64
9 | CCCCCC/C=C/c1cc2ccc1Oc1cc3cc(c1O[C@@H]1O[C@H](CO)[C@@H](O)[C@H](O)[C@H]1O[C@H]1C[C@](C)(N)[C@H](O)[C@H](C)O1)Oc1ccc(cc1Cl)[C@@H](O)[C@@H](NC(=O)[C@@H](CC(C)C)NC)C(=O)N[C@@H](CC(N)=O)C(=O)N[C@H]3C(=O)N[C@H]1C(=O)N[C@H](C(=O)N[C@H](C(=O)O)c3cc(O)cc(O)c3-c3cc1ccc3O)[C@@H]2O | 3.77 | 1 (≈ 0.656 µM) | 2 (≈ 1.31 µM) | > 64 | > 64 | 2 (≈ 1.31 µM) | > 64 | 2 (≈ 1.31 µM) | > 64 | > 64
10 | CN[C@H](CC(C)C)C(=O)N[C@H]1C(=O)N[C@@H](CC(N)=O)C(=O)N[C@H]2C(=O)N[C@H]3C(=O)N[C@H](C(=O)N[C@H](C(=O)O)c4cc(O)cc(O)c4-c4cc3ccc4O)[C@H](O)c3ccc(c(/C=C/CCCc4ccccc4)c3)Oc3cc2cc(c3O[C@@H]2O[C@H](CO)[C@@H](O)[C@H](O)[C@H]2O[C@H]2C[C@](C)(N)[C@H](O)[C@H](C)O2)Oc2ccc(cc2Cl)[C@H]1O |  | 1 (≈ 0.641 µM) | 2 (≈ 1.28 µM) | > 64 | > 64 | 2 (≈ 1.28 µM) | > 64 | 1 (≈ 0.641 µM) | > 64 | > 64
11 | CN[C@H](CC(C)C)C(=O)N[C@H]1C(=O)N[C@@H](CC(N)=O)C(=O)N[C@H]2C(=O)N[C@H]3C(=O)N[C@H](C(=O)N[C@H](C(=O)O)c4cc(O)cc(O)c4-c4cc3ccc4O)[C@H](O)c3ccc(c(/C=C/c4ccc(-c5ccccc5)cc4)c3)Oc3cc2cc(c3O[C@@H]2O[C@H](CO)[C@@H](O)[C@H](O)[C@H]2O[C@H]2C[C@](C)(N)[C@H](O)[C@H](C)O2)Oc2ccc(cc2Cl)[C@H]1O |  | 0.25 (≈ 0.157 µM) | 0.5 (≈ 0.314 µM) | 0.5 (≈ 0.314 µM) | 64 (≈ 40.2 µM) | 0.25 (≈ 0.157 µM) | 32 (≈ 20.1 µM) | 0.25 (≈ 0.157 µM) | 2 (≈ 1.26 µM) | > 64
12 | C/C=C/c1cc2ccc1Oc1cc3cc(c1O[C@@H]1O[C@H](CO)[C@@H](O)[C@H](O)[C@H]1O[C@H]1C[C@](C)(N)[C@H](O)[C@H](C)O1)Oc1ccc(cc1/C=C/C)[C@@H](O)[C@@H](NC(=O)[C@@H](CC(C)C)NC)C(=O)N[C@@H](CC(N)=O)C(=O)N[C@H]3C(=O)N[C@H]1C(=O)N[C@H](C(=O)N[C@H](C(=O)O)c3cc(O)cc(O)c3-c3cc1ccc3O)[C@@H]2O |  | 1 (≈ 0.685 µM) | 2 (≈ 1.37 µM) | > 64 | > 64 | 1 (≈ 0.685 µM) | > 64 | 2 (≈ 1.37 µM) | > 64 | 64 (≈ 43.8 µM)
13 | C/C=C/c1cc2ccc1Oc1cc3cc(c1O[C@@H]1O[C@H](CO)[C@@H](O)[C@H](O)[C@H]1O[C@H]1C[C@](C)(N)[C@H](O)[C@H](C)O1)Oc1ccc(cc1/C=C/CCCCCC)[C@@H](O)[C@@H]1NC(=O)[C@H](NC(=O)[C@@H]3NC(=O)[C@H](CC(N)=O)NC(=O)[C@H](NC(=O)[C@@H](CC(C)C)NC)[C@@H]2O)c2ccc(O)c(c2)-c2c(O)cc(O)cc2[C@@H](C(=O)O)NC1=O |  | 32 (≈ 20.9 µM) | 64 (≈ 41.8 µM) | > 64 | > 64 | 32 (≈ 20.9 µM) | > 64 | 32 (≈ 20.9 µM) | > 64 | > 64
14 | CN[C@H](CC(C)C)C(=O)N[C@H]1C(=O)N[C@@H](CC(N)=O)C(=O)N[C@H]2C(=O)N[C@H]3C(=O)N[C@H](C(=O)N[C@H](C(=O)O)c4cc(O)cc(O)c4-c4cc3ccc4O)[C@H](O)c3ccc(c(Cl)c3)Oc3cc2cc(c3O[C@@H]2O[C@H](CO)[C@@H](O)[C@H](O)[C@H]2O[C@H]2C[C@](C)(N)[C@H](O)[C@H](C)O2)Oc2ccc(cc2Cl)[C@H]1O [VANCOMYCIN] | 3.39 |  |  | > 64 | > 64 |  | > 64 | 2 (≈ 1.38 µM) |  | > 64

Source: ChEMBL document CHEMBL1155426, “Discovery of a novel series of semisynthetic vancomycin derivatives effective against vancomycin-resistant bacteria” (J Med Chem, 2010)
